# Test results from ChEMBL document CHEMBL5653631, “A Potent and Selective ULK1 Inhibitor Suppresses Autophagy and Sensitizes Cancer Cells to Nutrient Stress” (iScience, 2018).
# Experiments:
# [1] = biological target: T1, Calcium/calmodulin-dependent protein kinase type IV (Homo sapiens) (UniProt Q16566); test: Inhibition of human recombinant CaMK4 at 40 nM related to control ULK1
# T1 sequence (whole entry): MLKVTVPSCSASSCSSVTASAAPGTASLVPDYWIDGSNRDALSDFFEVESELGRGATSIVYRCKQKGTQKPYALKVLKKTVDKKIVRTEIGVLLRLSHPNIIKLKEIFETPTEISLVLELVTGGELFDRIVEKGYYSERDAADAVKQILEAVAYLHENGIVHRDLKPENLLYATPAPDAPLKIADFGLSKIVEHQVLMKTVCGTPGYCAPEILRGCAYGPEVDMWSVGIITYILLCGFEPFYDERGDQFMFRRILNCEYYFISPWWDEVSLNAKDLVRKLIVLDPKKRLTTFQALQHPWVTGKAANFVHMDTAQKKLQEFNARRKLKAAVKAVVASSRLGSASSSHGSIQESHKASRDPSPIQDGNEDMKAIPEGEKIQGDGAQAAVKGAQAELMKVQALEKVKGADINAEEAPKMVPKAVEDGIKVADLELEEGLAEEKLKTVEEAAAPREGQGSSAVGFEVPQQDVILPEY
# [2] = biological target: Wee1-like protein kinase (Homo sapiens) (UniProt P30291); test: Inhibition of human recombinant Wee1 at 40 nM related to control ULK1
# [3] = biological target: T2, Inhibitor of nuclear factor kappa-B kinase subunit epsilon (Homo sapiens) (UniProt Q14164); test: Inhibition of human recombinant IKKe at 15 nM related to control ULK1
# T2 sequence (whole entry): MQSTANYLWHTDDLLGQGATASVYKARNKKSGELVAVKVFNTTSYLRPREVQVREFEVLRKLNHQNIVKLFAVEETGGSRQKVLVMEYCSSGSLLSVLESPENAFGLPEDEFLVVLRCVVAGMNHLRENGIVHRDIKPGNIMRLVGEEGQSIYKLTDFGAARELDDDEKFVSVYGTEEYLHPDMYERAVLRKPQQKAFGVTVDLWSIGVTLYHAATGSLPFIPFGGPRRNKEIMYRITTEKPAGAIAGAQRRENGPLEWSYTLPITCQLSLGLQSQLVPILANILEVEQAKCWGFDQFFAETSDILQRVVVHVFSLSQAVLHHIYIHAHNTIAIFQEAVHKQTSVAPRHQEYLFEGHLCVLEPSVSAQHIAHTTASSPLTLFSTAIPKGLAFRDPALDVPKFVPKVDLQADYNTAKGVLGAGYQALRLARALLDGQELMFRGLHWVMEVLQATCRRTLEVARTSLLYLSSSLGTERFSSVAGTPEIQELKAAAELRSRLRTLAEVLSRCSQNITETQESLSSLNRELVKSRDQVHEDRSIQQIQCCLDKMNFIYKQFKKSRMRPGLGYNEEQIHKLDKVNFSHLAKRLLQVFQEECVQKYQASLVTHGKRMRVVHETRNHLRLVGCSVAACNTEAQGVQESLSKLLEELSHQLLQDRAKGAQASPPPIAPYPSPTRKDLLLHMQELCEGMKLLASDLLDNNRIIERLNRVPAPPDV
# [4] = biological target: Cyclin-dependent kinase-like 1 (Homo sapiens) (UniProt Q00532); test: Inhibition of human recombinant CDKL1 at 500 nM in presence of ATP by radiometric assay relative to control
# [5] = biological target: Serine/threonine-protein kinase MARK1 (Homo sapiens) (UniProt Q9P0L2); test: Inhibition of human recombinant MARK1 at 500 nM in presence of ATP by radiometric assay relative to control
# [6] = biological target: T3, Serine/threonine-protein kinase Nek1 (Homo sapiens) (UniProt Q96PY6); test: Inhibition of human recombinant NEK1 at 500 nM in presence of ATP by radiometric assay relative to control
# T3 sequence (whole entry): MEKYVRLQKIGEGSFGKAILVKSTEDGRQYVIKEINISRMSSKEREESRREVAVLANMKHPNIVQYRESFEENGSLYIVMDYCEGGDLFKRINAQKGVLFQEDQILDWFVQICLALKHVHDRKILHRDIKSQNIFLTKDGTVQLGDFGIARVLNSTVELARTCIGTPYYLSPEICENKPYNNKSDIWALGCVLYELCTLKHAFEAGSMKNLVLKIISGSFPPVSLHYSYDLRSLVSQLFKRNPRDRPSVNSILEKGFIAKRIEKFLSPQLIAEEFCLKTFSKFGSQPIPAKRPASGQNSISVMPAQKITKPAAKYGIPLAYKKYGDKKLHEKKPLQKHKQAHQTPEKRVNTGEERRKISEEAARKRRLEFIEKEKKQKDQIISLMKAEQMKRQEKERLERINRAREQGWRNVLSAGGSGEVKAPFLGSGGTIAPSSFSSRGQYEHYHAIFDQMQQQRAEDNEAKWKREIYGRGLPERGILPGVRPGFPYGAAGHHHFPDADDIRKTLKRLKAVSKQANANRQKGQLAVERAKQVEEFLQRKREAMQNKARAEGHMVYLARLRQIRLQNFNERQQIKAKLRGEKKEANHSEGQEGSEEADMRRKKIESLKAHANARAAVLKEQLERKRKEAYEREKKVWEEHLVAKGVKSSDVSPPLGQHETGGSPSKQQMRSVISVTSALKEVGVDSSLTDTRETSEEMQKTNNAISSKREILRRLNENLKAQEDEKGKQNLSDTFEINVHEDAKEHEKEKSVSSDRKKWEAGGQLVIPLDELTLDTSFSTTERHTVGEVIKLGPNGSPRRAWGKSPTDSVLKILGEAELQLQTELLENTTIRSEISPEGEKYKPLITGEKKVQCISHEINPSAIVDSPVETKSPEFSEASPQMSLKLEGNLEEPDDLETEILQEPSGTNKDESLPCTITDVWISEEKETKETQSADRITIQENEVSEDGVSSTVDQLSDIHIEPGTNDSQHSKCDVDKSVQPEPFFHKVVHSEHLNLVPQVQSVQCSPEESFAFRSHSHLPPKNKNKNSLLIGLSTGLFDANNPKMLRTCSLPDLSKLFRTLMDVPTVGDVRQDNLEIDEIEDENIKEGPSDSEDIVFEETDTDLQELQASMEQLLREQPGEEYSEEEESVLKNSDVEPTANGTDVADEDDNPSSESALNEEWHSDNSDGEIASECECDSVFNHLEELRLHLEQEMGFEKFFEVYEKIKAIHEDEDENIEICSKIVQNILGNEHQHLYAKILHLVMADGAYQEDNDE
# Sequence of Serine/threonine-protein kinase MARK1 (Homo sapiens) (Q9P0L2 whole entry, looked up): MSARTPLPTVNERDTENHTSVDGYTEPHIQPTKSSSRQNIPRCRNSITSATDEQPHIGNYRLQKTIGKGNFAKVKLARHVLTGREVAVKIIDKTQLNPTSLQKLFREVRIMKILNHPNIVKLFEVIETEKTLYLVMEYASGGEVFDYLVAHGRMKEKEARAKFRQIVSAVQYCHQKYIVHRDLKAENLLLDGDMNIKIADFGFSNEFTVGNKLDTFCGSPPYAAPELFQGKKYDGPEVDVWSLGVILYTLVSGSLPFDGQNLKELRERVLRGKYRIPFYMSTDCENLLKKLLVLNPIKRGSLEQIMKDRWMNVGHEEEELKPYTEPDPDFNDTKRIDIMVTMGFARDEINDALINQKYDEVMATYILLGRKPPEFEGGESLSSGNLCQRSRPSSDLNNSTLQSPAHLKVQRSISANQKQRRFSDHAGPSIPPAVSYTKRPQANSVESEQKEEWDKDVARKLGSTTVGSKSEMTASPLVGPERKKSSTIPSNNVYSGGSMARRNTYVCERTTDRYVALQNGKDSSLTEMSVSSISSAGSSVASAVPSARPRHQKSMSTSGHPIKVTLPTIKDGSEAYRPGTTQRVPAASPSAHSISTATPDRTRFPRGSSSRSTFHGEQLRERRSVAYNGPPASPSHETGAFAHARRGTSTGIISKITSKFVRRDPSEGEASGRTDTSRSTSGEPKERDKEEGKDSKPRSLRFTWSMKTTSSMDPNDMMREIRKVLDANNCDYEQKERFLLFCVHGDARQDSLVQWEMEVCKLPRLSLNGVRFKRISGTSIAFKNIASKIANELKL
# Sequence of Wee1-like protein kinase (Homo sapiens) (P30291 whole entry, looked up): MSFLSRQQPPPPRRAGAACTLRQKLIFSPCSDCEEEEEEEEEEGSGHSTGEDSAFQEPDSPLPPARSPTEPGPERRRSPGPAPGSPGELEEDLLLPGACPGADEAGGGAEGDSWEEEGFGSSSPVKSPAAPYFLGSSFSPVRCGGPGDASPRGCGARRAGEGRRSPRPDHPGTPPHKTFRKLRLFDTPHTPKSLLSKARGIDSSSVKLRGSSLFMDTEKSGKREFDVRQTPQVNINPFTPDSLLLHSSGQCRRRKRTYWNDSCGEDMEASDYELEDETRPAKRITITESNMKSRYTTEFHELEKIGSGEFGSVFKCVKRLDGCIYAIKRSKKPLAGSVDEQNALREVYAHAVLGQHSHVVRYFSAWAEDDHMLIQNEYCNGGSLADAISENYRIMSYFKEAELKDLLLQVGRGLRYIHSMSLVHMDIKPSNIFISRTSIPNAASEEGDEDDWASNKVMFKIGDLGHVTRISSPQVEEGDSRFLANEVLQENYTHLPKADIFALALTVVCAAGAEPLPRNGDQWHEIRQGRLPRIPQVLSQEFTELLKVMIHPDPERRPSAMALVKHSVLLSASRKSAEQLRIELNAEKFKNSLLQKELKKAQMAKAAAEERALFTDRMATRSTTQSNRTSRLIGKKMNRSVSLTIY
# Sequence of Cyclin-dependent kinase-like 1 (Homo sapiens) (Q00532 whole entry): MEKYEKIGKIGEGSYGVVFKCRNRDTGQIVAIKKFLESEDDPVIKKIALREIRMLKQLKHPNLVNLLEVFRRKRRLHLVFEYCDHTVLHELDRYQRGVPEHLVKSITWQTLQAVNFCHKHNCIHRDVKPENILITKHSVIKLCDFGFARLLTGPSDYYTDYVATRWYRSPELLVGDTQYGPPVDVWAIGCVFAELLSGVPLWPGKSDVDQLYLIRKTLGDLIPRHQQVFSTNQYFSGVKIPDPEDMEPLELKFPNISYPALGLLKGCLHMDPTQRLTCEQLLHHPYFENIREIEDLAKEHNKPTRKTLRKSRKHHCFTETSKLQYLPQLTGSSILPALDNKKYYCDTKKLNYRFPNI
compound,measurement,setting,value
O=C(N[C@@H](C1CC1)C(F)(F)F)c1cc(-c2cnn3cc(-c4ccc(F)cc4)cnc23)cs1,fold change (FC),[1],0
same,fold change (FC),[2],0.01
CC(C)[C@H](NC(=O)c1cc(-c2cnn3cc(-c4ccc(OCCN5CCCCC5)cc4)cnc23)cs1)C(F)(F)F,fold change (FC),[3],0.85
CNC(=O)c1ccccc1Oc1nc(Nc2cc(OC)c(OC)c(OC)c2)ncc1Br,inhibition,[4],0%
same,inhibition,[5],54%
same,inhibition,[6],8%
